For series [1], the target named is T1, 5-HT2B receptor (Homo sapiens, UniProt P41595). The experiment in a line: (§1) Agonist activity at human 5-HT2B receptor transfected in CHO cell assessed as IP1 production incubated for 30 mins measured by HTRF detection method. Format: cell-based. The following applies: human, CHO cells transfected with human 5-HT2B receptor. Background: In TR-FRET formats the signal depends on donor and acceptor labels being close together.

The target in series [2] is T2, 5-hydroxytryptamine receptor 2B (Homo sapiens, UniProt P41595). Described as §1. Format: cell-based. The following applies: for Activity: human, cho, 0.5 h.
T2 sequence (P41595 whole entry): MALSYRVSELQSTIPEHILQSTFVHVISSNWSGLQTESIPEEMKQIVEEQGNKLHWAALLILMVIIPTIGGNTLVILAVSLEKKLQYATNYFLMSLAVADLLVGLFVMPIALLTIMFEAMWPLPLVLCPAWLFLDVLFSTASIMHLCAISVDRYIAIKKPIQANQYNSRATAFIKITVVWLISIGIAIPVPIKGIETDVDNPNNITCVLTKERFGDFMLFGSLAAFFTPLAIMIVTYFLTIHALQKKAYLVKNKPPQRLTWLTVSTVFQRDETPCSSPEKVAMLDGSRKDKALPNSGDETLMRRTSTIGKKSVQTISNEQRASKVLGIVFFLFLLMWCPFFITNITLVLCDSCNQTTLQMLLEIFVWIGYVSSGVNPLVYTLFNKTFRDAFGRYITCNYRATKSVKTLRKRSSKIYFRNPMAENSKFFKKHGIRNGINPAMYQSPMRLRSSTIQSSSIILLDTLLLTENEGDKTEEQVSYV
Series [3] addresses T2, 5-hydroxytryptamine receptor 2B. The experiment in a line: Displacement of [125I](+/-)DOI from human 5-HT2B receptor transfected in CHO cell membrane after 60 mins by scintillation counting analysis. Format: cell membranes.
In series [4] the target is T1, 5-HT2B receptor. The experiment in a line: (§2) Partial agonist activity at human 5-HT2B receptor expressed in HEK293 cells assessed as intracellular calcium mobilization by FLIPR analysis. It counts as cell-based. The conditions noted are these: HEK293 cells expressing human 5-HT2B receptor. A general note: Calcium flux is commonly read through the fluorescence of an indicator in the cells.

For series [5], the target named is T2, 5-hydroxytryptamine receptor 2B. The experiment in a line: Antagonist activity at human 5-HT2B receptor transfected in CHO cell assessed as decrease in 5-HT-induced IP1 production preincubated for 5 mins before 5-HT addition measured after 30 mins by HTRF detection method. Format: functional, cell-based.
In series [6] the target is 5-hydroxytryptamine receptor 2A (Homo sapiens, UniProt P28223). The experiment in a line: Antagonist activity at human 5-HT2A receptor assessed as decrease in agonist-induced intracellular calcium mobilization preincubated for 10 mins prior to agonist addition measured by FLIPR analysis. It counts as functional, cell-based.
Sequence of 5-hydroxytryptamine receptor 2A (P28223 whole entry): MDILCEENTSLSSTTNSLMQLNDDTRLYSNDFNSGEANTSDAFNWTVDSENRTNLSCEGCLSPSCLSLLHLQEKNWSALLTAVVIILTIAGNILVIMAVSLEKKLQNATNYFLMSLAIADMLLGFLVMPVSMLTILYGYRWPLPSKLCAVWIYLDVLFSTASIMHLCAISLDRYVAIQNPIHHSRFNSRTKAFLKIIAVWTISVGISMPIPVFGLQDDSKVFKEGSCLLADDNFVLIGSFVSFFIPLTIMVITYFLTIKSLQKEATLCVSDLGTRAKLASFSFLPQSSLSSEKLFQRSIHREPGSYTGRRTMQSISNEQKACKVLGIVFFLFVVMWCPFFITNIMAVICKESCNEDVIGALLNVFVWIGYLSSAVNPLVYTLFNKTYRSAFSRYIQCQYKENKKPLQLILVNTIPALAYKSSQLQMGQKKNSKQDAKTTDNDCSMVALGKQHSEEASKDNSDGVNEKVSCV
The target in series [7] is D(2) dopamine receptor (Homo sapiens) (UniProt P14416). The experiment in a line: Partial agonist activity at human D2 receptor transfected in HTLA cells measured after overnight incubation by luminescence counter analysis. Format: cell-based.
Sequence of D(2) dopamine receptor (Homo sapiens) (P14416 whole entry): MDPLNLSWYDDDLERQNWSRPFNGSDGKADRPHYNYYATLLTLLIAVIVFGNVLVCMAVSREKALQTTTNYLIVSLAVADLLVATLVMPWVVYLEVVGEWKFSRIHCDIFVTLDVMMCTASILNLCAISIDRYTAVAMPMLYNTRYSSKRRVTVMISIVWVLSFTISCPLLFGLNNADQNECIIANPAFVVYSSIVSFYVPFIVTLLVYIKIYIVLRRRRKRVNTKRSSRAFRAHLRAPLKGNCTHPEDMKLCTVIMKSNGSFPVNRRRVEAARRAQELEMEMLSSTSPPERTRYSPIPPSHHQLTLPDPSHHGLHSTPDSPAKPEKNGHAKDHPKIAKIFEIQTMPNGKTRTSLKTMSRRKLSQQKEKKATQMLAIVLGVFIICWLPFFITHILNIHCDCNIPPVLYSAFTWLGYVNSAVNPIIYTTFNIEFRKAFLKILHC
The target of series [8] is T2, 5-hydroxytryptamine receptor 2B. The series is described as §2. It counts as cell-based. The following applies: hek293.

Broadly, the Emax is the size of the effect at its maximum, as opposed to the concentration needed. One may read the EC50 as the concentration giving half of the maximal effect. As usually defined, the Ki is the dissociation constant of the complex between target and ligand, obtained from inhibition or displacement. Usually IC50 stands for the midpoint of a concentration-inhibition curve. Broadly, the Kb is the affinity of an antagonist, worked out from how it opposes an agonist.

Each structure is given as a SMILES string.

T1 sequence (P41595 whole entry): as the sequence (P41595 whole entry) above

`C=CCN1C[C@H](C(=O)N(CCCN2CCOCC2)C(=O)NCC)C[C@@H]2c3cccc4[nH]cc(c34)C[C@H]21`: the Emax at 0.5 h on 5-HT2B receptor [1] worked out at 106%. Also, the EC50 in series [2] worked out at 13 nM. In addition, the Ki in series [3] turned out to be 7.1 nM.

As for `CN(C)CCCNC(=O)[C@@H]1C[C@@H]2c3cccc4c3c(cn4C)C[C@H]2N(C)C1`, the Emax on 5-HT2B receptor [4] is less than 12%. In series [5], the IC50 stood at 37 nM and the Kb amounted to 9.3 nM. Further, the Emax at 0.5 h at 5-HT2B receptor [1] is less than 12%. In addition, the affinity in series [3] corresponds to a Ki of 0.97 nM.

Consider `CCNC(=O)N(CCCN(C)C)C(=O)[C@@H]1C[C@@H]2c3cccc4c3c(cn4C)C[C@H]2N(C)C1`, for which the IC50 in series [6] was determined as 11500 nM; in series [5], 22 nM. The compound further came in with an Emax in series [7] of 50%. The Activity result in series [8] and in series [2] was “Not Active” throughout. In addition, the Kb in series [5] was determined as 5.6 nM. In series [3], this compound gave a Ki of 1 nM.

Turning to `C=CCN1C[C@H](C(=O)N(CCCN(C)C)C(=O)NCC)C[C@@H]2c3cccc4[nH]cc(c34)C[C@H]21` [CABERGOLINE], the Emax at 0.5 h on 5-HT2B receptor [1] was 103%. Moreover, in series [2], the EC50 came out at 13 nM. Further, the affinity in series [3] corresponds to a Ki of 1.4 nM.

For the compound `COC(OC)[C@@H]1C[C@@H]2c3cccc4c3c(cn4C)C[C@H]2N(C)C1`, the Activity result in series [8] is recorded as “Not Active”. In addition, in series [5], the IC50 was 13 nM and the Kb was found to be 3.3 nM. The Activity entry in series [2] is reported as “Not Active”. For the same compound, the Ki in series [3] is 0.54 nM.

These data come from ChEMBL document CHEMBL2321823, “Synthesis of novel analogs of cabergoline: improving cardiovascular safety by removing 5-HT2B receptor agonism” (ACS Med Chem Lett, 2013).
